Bounds are passed on as bounds.

Assay [1] is described as follows: Displacement of [3H]2-BFI from imidazoline receptor I-2. Also noted: species or system Rattus norvegicus. For orientation: Loss of bound radioactivity is the signal in a displacement assay; it reports binding, not function.
The target in assay [2] is T1, Adrenergic receptor alpha-2 (Rattus norvegicus, UniProt P22086+P19328+P22909).
T1 sequence (P22086 whole entry): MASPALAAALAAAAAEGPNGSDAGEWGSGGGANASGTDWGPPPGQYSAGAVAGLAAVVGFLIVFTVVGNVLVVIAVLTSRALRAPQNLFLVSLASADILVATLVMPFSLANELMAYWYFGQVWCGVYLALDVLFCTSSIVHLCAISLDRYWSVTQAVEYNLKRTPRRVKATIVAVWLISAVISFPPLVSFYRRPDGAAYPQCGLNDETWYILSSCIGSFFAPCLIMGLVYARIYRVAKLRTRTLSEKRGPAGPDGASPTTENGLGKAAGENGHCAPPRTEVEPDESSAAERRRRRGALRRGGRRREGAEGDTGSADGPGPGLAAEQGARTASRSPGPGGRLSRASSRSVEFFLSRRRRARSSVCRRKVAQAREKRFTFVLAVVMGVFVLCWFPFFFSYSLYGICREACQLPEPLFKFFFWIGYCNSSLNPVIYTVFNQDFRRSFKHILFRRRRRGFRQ
T1 sequence (P19328 whole entry): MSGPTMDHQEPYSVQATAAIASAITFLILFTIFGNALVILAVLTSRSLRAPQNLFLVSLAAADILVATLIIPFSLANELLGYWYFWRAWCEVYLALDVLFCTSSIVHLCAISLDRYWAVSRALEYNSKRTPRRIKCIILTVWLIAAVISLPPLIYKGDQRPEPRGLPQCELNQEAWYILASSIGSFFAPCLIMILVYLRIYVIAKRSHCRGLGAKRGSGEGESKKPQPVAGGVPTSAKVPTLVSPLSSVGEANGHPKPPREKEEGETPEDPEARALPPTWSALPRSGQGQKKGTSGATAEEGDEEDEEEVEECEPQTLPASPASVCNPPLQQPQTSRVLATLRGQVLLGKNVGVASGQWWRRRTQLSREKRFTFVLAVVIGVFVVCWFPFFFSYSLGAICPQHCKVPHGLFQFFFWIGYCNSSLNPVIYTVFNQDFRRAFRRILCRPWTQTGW
T1 sequence (P22909 whole entry): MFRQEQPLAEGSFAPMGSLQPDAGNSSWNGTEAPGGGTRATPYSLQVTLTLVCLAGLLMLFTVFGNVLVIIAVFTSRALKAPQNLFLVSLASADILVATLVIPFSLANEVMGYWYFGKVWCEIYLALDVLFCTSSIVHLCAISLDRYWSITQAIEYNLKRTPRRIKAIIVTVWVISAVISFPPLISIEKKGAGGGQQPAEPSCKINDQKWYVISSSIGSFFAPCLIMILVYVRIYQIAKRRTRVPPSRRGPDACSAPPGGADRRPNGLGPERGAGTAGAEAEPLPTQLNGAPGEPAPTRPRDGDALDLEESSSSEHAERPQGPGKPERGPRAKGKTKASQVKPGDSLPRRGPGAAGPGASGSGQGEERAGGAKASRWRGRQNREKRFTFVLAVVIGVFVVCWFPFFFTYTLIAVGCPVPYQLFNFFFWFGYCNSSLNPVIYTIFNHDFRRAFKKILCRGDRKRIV
The assay is described as follows: Displacement of [3H]RX-821002 from alpha-2 adrenergic receptor. Format: protein assay.

For assay [3], the target named is 5-hydroxytryptamine receptor 2A (Rattus norvegicus, UniProt P14842). The assay is described as follows: Binding affinity for 5-hydroxytryptamine 2A serotonin receptor.
Sequence of 5-hydroxytryptamine receptor 2A (P14842 whole entry): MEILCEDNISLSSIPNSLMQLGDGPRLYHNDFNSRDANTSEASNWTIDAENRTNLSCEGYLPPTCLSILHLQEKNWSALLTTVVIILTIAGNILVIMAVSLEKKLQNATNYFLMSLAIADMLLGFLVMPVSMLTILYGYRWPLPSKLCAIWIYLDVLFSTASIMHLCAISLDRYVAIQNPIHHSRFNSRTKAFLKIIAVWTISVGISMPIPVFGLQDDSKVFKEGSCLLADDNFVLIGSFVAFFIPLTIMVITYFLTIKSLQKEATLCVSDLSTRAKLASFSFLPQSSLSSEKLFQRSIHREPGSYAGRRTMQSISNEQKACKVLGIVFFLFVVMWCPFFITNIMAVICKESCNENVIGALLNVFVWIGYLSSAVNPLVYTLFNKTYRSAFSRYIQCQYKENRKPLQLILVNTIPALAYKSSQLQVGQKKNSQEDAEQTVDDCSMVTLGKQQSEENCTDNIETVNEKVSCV

With `COc1ccc2[nH]c3c(c2c1)CCN=C3`, the Ki in assay [1] came to 480 nM.
The same measure, in the same setting: to `c1ccc2oc(C3=NCCN3)cc2c1` belongs below 10 nM.
The same measure, in the same setting: to `C1=NCCc2c1[nH]c1ccccc21` belongs 7.3 nM.
On to `c1ccc2c3c([nH]c2c1)CNCC3` [TRYPTOLINE], for which the inhibitory constant (Ki) in assay [1] stood at 9.4 nM; in assay [2], 1600 nM.
In assay [1], `COc1ccc2c(c1)cc1n2CCNC1` came in with an IC50 of 8280 nM. The results for the inhibition constant (Ki) in assay [1], in assay [2] and in assay [3] were 6.2 nM, 9550 nM and 9930 nM, respectively.
Take `COc1ccc2c3c([nH]c2c1)C=NCC3` [CGS-19281A]: the Ki in assay [1] stood at 18 nM.
`COc1ccc2cc3n(c2c1)CCNC3`: the inhibitory constant (Ki) is 250 nM in assay [1] and 4510 nM in assay [2].
For `c1ccc2c(c1)cc1n2CCNC1`, in that order: 6.5 nM and 516 nM.
For `c1ccc2c(c1)nc1n2CCNC1`, in that order: 6790 nM and 13400 nM.
Take `c1ccc2c3c([nH]c2c1)C1=NCCN1CC3`: the Ki in assay [1] was found to be 9910 nM; in assay [2], 1600 nM.
For `COc1ccc2[nH]c3c(c2c1)CCNC3`, in assay [1], affinity was put at a Ki of 1640 nM.

In general, Ki refers to the dissociation constant of the complex between target and ligand, obtained from inhibition or displacement. A higher Ki goes with lower affinity. As a reminder, the IC50 is the concentration needed to halve the response being measured. A lower IC50 goes with greater potency in that assay.

The record behind these values is ChEMBL document CHEMBL1147440, “Pyrazino[1,2-a]indoles as novel high-affinity and selective imidazoline I(2) receptor ligands” (Bioorg Med Chem Lett, 2004).
